According to ChEMBL document CHEMBL3351837 (Bioorg Med Chem Lett, 2014):

Columns and labels:
[1] = target: 3',5'-cyclic-AMP phosphodiesterase 4D (Homo sapiens, UniProt Q08499)
Description: Inhibition of human recombinant PDE4D2 activity assessed as residual cAMP concentration by HTRF assay

[2] = Apparent permeability of the compound at pH 7.4 buffer by PAMPA; assay type: physicochemical
[3] = target: 3',5'-cyclic-AMP phosphodiesterase 4B (Homo sapiens, UniProt Q07343); assay: Inhibition of human recombinant PDE4B1 activity assessed as residual cAMP concentration by HTRF assay
[4] = Half life in human lung S9 fraction after 60 mins by […] analysis; assay type: ADME, tissue-based
[5] = Half life in human plasma after 60 mins by […] analysis; assay type: ADME, cell-free
[6] = Half life in human lung homogenate after 60 mins by […] analysis; assay type: ADME, tissue-based

Chain of 3',5'-cyclic-AMP phosphodiesterase 4D (Q08499 whole entry): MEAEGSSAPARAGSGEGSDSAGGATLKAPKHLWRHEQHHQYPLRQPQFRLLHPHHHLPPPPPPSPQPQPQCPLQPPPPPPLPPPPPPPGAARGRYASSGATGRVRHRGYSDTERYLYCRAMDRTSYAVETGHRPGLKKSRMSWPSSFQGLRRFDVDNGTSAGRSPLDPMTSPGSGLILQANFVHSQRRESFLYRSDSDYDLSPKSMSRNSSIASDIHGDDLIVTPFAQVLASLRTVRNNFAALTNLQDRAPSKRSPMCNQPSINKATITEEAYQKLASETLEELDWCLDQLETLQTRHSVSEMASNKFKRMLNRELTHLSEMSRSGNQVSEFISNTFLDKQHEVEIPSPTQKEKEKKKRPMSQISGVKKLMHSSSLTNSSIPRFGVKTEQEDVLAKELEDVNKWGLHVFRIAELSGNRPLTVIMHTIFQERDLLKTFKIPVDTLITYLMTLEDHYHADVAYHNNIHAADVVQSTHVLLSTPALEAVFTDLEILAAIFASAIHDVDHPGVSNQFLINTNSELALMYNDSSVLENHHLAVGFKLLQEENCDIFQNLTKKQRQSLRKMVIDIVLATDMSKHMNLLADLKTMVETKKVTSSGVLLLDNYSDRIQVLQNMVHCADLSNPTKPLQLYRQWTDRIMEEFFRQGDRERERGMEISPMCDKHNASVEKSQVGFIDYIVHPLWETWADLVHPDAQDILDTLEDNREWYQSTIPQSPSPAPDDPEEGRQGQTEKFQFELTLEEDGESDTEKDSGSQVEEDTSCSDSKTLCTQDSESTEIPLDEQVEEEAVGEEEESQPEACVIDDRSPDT
Chain of 3',5'-cyclic-AMP phosphodiesterase 4B (Q07343 whole entry): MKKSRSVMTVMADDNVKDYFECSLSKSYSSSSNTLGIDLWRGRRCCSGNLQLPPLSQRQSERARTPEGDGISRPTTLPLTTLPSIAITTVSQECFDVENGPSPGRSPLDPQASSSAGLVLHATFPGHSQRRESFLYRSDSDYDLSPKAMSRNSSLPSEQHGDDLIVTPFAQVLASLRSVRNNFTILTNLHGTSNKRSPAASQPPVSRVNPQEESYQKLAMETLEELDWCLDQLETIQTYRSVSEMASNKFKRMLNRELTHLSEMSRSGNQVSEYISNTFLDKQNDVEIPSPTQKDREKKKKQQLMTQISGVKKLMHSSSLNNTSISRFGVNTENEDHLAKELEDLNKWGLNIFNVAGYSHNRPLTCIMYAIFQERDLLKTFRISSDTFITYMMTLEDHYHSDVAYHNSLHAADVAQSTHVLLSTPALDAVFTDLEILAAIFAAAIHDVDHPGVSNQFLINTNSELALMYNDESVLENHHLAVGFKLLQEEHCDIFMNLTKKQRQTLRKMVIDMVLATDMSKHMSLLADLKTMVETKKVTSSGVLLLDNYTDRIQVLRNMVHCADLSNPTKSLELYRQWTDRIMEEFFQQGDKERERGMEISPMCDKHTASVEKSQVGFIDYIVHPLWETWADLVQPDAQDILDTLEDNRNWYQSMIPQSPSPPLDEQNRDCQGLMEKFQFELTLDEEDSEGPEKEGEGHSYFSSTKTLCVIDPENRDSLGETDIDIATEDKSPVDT

| SMILES | IC50 [1] [µM] | Papp [2] [×10⁻⁶ cm/s] | IC50 [3] [µM] | half-life [4] [min] | half-life [5] [min] | half-life [6] [min] |
| --- | --- | --- | --- | --- | --- | --- |
| O=C(Nc1c(Cl)cncc1Cl)c1ccc(OC(F)F)c(OCCCCSC(CCO)C(=O)O)c1 (configuration not stated) | 0.0045 | 0.05 | 0.0088 |  |  |  |
| O=C(Nc1c(Cl)cncc1Cl)c1ccc(OC(F)F)c(OCCCN[C@H]2CCOC2=O)c1 | 0.048 |  | 0.011 |  |  |  |
| O=C(Nc1c(Cl)cncc1Cl)c1ccc(OC(F)F)c(OCCCCNC(CCO)C(=O)O)c1 (configuration not stated) | 0.15 | 0.03 | 0.18 |  |  |  |
| O=C(Nc1c(Cl)cncc1Cl)c1ccc(OC(F)F)c(OCCCN[C@H](CCO)C(=O)O)c1 | 7.2 |  | 1.7 |  |  |  |
| O=C(Nc1c(Cl)cncc1Cl)c1ccc(OC(F)F)c(OCCCN[C@@H](CCO)C(=O)O)c1 | > 10 |  | 2.7 |  |  |  |
| O=C(Nc1c(Cl)cncc1Cl)c1ccc(OC(F)F)c(OCCCCSC2CCOC2=O)c1 (configuration not stated) | 0.0018 |  | 0.0047 | > 60 | < 5 |  |
| O=C(Nc1c(Cl)cncc1Cl)c1ccc(OC(F)F)c(OCCCSC(CCO)C(=O)O)c1 (configuration not stated) | 0.0099 | 0.14 | 0.0055 |  |  |  |
| O=C(Nc1c(Cl)cncc1Cl)c1ccc(OC(F)F)c(OCCCNC(CCO)C(=O)O)c1 (configuration not stated) | 2.3 | 0.02 | 0.74 |  |  |  |
| O=C(O)CNCCCOc1cc(C(=O)Nc2c(Cl)cncc2Cl)ccc1OC(F)F | 1.5 | < 0.01 | 0.91 |  |  |  |
| O=C(Nc1c(Cl)c[n+]([O-])cc1Cl)c1ccc(OC(F)F)c(OCCCNC2CCOC2=O)c1 (configuration not stated) | 0.17 |  | 0.088 |  | 8 |  |
| O=C(Nc1c(Cl)cncc1Cl)c1ccc(OC(F)F)c(OCCCNC2CCOC2=O)c1 (configuration not stated) | 0.018 |  | 0.0054 | > 60 | < 5 | > 60 |
| COC(=O)CNCCCOc1cc(C(=O)Nc2c(Cl)cncc2Cl)ccc1OC(F)F | 0.032 | 8.9 | 0.021 |  | 19 |  |
| CNC(=C[N+](=O)[O-])NCCSCc1ccc(CN(C)C)o1 [RANITIDINE] |  | 0.14 |  |  |  |  |
| O=C(Nc1c(Cl)cncc1Cl)c1ccc(OC(F)F)c(OCCCSC2CCOC2=O)c1 (configuration not stated) | 0.0055 |  | 0.0018 | > 60 | < 5 | 39 |
| O=C(Nc1c(Cl)cncc1Cl)c1ccc(OC(F)F)c(OCCCN[C@@H]2CCOC2=O)c1 | 0.0073 |  | 0.012 |  |  |  |
| O=C(Nc1c(Cl)cncc1Cl)c1ccc(OC(F)F)c(OCCCCNC2CCOC2=O)c1 (configuration not stated) | 0.0066 | 4.7 | 0.004 | > 60 | < 5 | > 60 |
| CC(C)NCC(O)COc1cccc2ccccc12 (configuration not stated) [PROPRANOLOL] |  | 10 |  |  |  |  |
